According to PubChem BioAssay (NCI):
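How tested: cells in 96-well plates exposed to compound for 48 hours at five concentrations. GI50: concentration for 50% inhibition of growth. Definition used: TGI = concentration required for complete inhibition of growth.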

What was measured:
Assay in all cases: NCI-60 cell line screen, 48 h
[1] = test system: 786-0 renal
[2] = test system: A498 renal
[3] = test system: A549 NSCLC
[4] = test system: ACHN renal
[5] = test system: BT-549 breast
[6] = test system: CAKI-1 renal
[7] = test system: COLO 205 colon
[8] = test system: DU-145 prostate
[9] = test system: EKVX NSCLC
[10] = test system: HCC-2998 colon
[11] = test system: HCT-116 colon
[12] = test system: HCT-15 colon
[13] = test system: HL-60(TB) leukemia
[14] = test system: HOP-62 NSCLC
[15] = test system: HOP-92 NSCLC
[16] = test system: HT29 colon
[17] = test system: IGROV1 ovarian
[18] = test system: KM12 colon
[19] = test system: LOX IMVI melanoma
[20] = test system: M14 melanoma
[21] = test system: MCF7 breast
[22] = test system: MDA-MB-231 breast
[23] = test system: MDA-MB-435
[24] = test system: MDA-N
[25] = test system: MOLT-4 leukemia
[26] = test system: NCI-H226 lung
[27] = test system: NCI-H23 lung
[28] = test system: NCI-H460 lung
[29] = test system: NCI/ADR-RES ovarian
[30] = test system: OVCAR-3 ovarian
[31] = test system: OVCAR-4 ovarian
[32] = test system: OVCAR-5 ovarian
[33] = test system: OVCAR-8 ovarian
[34] = test system: RXF 393 renal
[35] = test system: SF-268 CNS
[36] = test system: SF-295 CNS
[37] = test system: SF-539 CNS
[38] = test system: SK-MEL-2 melanoma
[39] = test system: SK-MEL-28 melanoma
[40] = test system: SK-MEL-5 melanoma
[41] = test system: SK-OV-3 ovarian
[42] = test system: SN12C renal
[43] = test system: SNB-19 CNS
[44] = test system: SNB-75 CNS
[45] = test system: SW-620 colon
[46] = test system: T-47D breast
[47] = test system: TK-10 renal
[48] = test system: U251 CNS
[49] = test system: UACC-257 melanoma
[50] = test system: UACC-62 melanoma
[51] = test system: UO-31 renal
[52] = test system: CCRF-CEM leukemia
[53] = test system: K-562 leukemia
[54] = test system: MALME-3M melanoma
[55] = test system: NCI-H522 lung
[56] = test system: RPMI-8226 leukemia
[57] = test system: SR leukemia

## COc1cccc(/C=C2\S/C(=N/Nc3nc(C)c(C)s3)NC2=O)c1O
[1]
  TGI: > 100 µM
[2]
  TGI: > 100 µM
[3]
  TGI: > 100 µM
[4]
  TGI: > 100 µM
[5]
  TGI: > 100 µM
[6]
  TGI: > 100 µM
[7]
  TGI: > 100 µM
[8]
  TGI: > 100 µM
[9]
  TGI: > 100 µM
[10]
  TGI: > 100 µM
[11]
  TGI: > 100 µM
[12]
  TGI: > 100 µM
[13]
  TGI: > 100 µM
[14]
  TGI: > 100 µM
[15]
  TGI: > 100 µM
[16]
  TGI: > 100 µM
[17]
  TGI: > 100 µM
[18]
  TGI: > 100 µM
[19]
  TGI: > 100 µM
[20]
  TGI: > 100 µM
[21]
  TGI: > 100 µM
[22]
  TGI: > 100 µM
[23]
  TGI: > 100 µM
[24]
  TGI: > 100 µM
[25]
  TGI: > 100 µM
[26]
  TGI: > 100 µM
[27]
  TGI: > 100 µM
[28]
  TGI: > 100 µM
[29]
  TGI: > 100 µM
[30]
  TGI: > 100 µM
[31]
  TGI: > 100 µM
[32]
  TGI: > 100 µM
[33]
  TGI: > 100 µM
[34]
  TGI: > 100 µM
[35]
  TGI: > 100 µM
[36]
  TGI: > 100 µM
[37]
  TGI: > 100 µM
[38]
  TGI: > 100 µM
[39]
  TGI: > 100 µM
[40]
  TGI: > 100 µM
[41]
  TGI: > 100 µM
[42]
  TGI: > 100 µM
[43]
  TGI: > 100 µM
[44]
  TGI: > 100 µM
[45]
  TGI: > 100 µM
[46]
  TGI: 73.8 µM
[47]
  TGI: > 100 µM
[48]
  TGI: > 100 µM
[49]
  TGI: > 100 µM
[50]
  TGI: > 100 µM
[51]
  TGI: > 100 µM

## COc1cc2c(c(OC)c1OC)-c1ccc(SC)c(=O)cc1[C@@H](O)CC2
[1]
  TGI: > 100 µM
[3]
  TGI: > 100 µM
[4]
  TGI: > 100 µM
[5]
  GI50: 98.4 µM
[6]
  TGI: > 100 µM
[52]
  TGI: > 100 µM
[8]
  TGI: > 100 µM
[9]
  GI50: > 100 µM
[10]
  TGI: > 100 µM
[11]
  TGI: > 100 µM
[13]
  GI50: 6.13 µM
[14]
  TGI: > 100 µM
[15]
  GI50: > 100 µM
  TGI: > 100 µM
[16]
  TGI: 0.0703 µM
[53]
  TGI: > 100 µM
[19]
  TGI: > 100 µM
[54]
  GI50: 0.028 µM
[21]
  TGI: > 100 µM
[24]
  TGI: 0.000318 µM
[25]
  TGI: > 100 µM
[26]
  TGI: 0.0169 µM
[28]
  TGI: > 100 µM
[55]
  GI50: 0.0116 µM
[29]
  TGI: 0.302 µM
[30]
  GI50: 0.000322 µM
[31]
  GI50: > 100 µM
  TGI: > 100 µM
[56]
  TGI: > 100 µM
[34]
  GI50: > 100 µM
  TGI: > 100 µM
[35]
  GI50: 0.0153 µM
[39]
  GI50: > 100 µM
  TGI: > 100 µM
[40]
  GI50: 0.000311 µM
[41]
  GI50: > 100 µM
[42]
  TGI: > 100 µM
[44]
  TGI: > 100 µM
[57]
  GI50: 0.0667 µM
[45]
  TGI: > 100 µM
[46]
  GI50: > 100 µM
  TGI: > 100 µM
[47]
  GI50: > 100 µM
  TGI: > 100 µM
[49]
  TGI: > 100 µM
[50]
  TGI: > 100 µM
[51]
  TGI: > 100 µM
